Results from US9029546B2, “Pyrazolopyridine kinase inhibitors” (Vertex Pharmaceuticals Incorporated, priority 2008, dated 2015).

How the values were obtained:
[1] = molecular target: PKC Delta (Homo sapiens, UniProt Q05655); test: PKC delta coupled-enzyme kinase assay (NADH consumption); assay type: biochemical; details: 240 μM ATP, 30° C.
Experimental: [The source words this procedure for another target and reports this target under the same test.] (§1) An assay buffer solution was prepared which consisted of 100 mM HEPES (pH 7.5), 10 mM MgCl2, 25 mM NaCl, 0.1 mM EDTA and 0.01% Brij. An enzyme buffer containing reagents to final assay concentrations of 0.00001% Triton X-100, 200 μg/mL Phosphatidylserine, 20 μg/mL Diacylglycerol, 360 μM NADH, 3 mM phosphoenolpyruvate, 70 μg/mL pyruvate kinase, 24 μg/mL lactate dehydrogenase, 2 mM DTT, 100 μM substrate peptide (ERMRPRKRQGSVRRRV (SEQ ID NO: 1)) and 18 nM PKC theta kinase was prepared in assay buffer. To 60 μL of this enzyme buffer, in a 384 well plate, was added 2 μL of VRT stock solution in DMSO. The mixture was allowed to equilibrate for 10 mins at 30° C. The enzyme reaction was initiated by the addition of 5 μL stock ATP solution prepared in assay buffer to a final assay concentration of 240 μM. Initial rate data was determined from the rate of change of absorbance at 340 nm (corresponding to stoichiometric consumption of NADH) using a Molecular Devices Spectramax plate reader (Sunnyvale, Calif.) over 15 mins at 30° C. For each Ki determination 12 data points covering the VRT concentration range of 0-20 μM were obtained in duplicate (DMSO stocks were prepared from an initial 10 mM VRT stock with subsequent 1:2 serial dilutions). Ki values were calculated from initial rate data by non-linear regression using the Prism software package (Prism 4.0a, Graphpad Software, San Diego, Calif.).

[2] = molecular target: PKC theta kinase (Homo sapiens, UniProt Q04759); test: PKC theta coupled-enzyme kinase assay (NADH consumption); assay type: biochemical; details: 240 μM ATP, 30° C.
Sequence of PKC theta kinase (Q04759 whole entry): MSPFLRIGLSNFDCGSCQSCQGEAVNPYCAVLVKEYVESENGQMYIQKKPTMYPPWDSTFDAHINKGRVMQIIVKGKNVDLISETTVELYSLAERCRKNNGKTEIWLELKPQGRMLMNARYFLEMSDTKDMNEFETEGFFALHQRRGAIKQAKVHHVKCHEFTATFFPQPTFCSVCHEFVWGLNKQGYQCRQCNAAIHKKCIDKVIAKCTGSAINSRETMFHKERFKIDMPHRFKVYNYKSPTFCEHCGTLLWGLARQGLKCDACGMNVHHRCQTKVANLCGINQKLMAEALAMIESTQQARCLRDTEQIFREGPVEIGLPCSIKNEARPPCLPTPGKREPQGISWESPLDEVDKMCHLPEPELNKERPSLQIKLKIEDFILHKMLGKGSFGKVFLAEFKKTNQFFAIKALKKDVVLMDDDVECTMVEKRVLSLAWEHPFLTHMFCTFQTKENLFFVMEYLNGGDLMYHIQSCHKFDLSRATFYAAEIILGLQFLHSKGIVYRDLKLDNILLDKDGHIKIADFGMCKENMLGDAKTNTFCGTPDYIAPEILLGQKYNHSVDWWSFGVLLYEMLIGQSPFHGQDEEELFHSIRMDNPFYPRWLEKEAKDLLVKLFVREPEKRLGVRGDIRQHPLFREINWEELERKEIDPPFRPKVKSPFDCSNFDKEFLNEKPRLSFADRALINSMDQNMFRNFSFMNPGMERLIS
Experimental: as §1

Sequence of PKC Delta (Q05655 whole entry): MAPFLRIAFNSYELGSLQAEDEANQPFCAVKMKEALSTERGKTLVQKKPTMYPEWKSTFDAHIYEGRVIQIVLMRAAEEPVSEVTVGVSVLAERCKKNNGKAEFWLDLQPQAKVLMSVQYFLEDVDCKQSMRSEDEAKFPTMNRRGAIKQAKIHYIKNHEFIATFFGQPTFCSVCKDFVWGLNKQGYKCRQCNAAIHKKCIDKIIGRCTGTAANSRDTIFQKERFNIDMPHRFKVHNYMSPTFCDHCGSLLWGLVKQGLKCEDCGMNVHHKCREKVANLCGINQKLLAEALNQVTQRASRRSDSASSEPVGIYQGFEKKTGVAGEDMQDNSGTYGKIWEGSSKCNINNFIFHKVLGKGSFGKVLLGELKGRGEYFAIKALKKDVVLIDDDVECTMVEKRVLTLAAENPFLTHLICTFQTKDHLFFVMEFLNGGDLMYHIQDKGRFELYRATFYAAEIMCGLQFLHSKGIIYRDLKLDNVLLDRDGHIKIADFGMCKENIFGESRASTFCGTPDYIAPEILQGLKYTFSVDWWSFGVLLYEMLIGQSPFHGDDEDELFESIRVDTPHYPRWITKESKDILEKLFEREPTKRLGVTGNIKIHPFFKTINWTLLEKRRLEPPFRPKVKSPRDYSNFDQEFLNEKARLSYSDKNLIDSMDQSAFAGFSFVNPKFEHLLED

Ki [1] [µM]	Ki [2] [µM]	Structure (SMILES)
< 0.05	< 0.05	CC(C)(N)CNc1cccc(-c2n[nH]c3ncccc23)n1 [Compound 1, N1-(6-(1H-pyrazolo[3,4-b]pyridin-3-yl)pyridin-2-yl)-2-methylpropane-1,2-diamine]
< 2.8	< 2.8	CNCCN(C)c1cccc(-c2n[nH]c3ncccc23)n1 [Compound 5]
< 0.5	< 0.5	c1cc(NC2CCNC2)nc(-c2n[nH]c3ncccc23)c1 (stereo not drawn) [Compound 6]
< 0.5	< 0.5	N[C@H](CNc1cccc(-c2n[nH]c3ncccc23)n1)c1ccccc1 [Compound 11]
< 0.5	< 0.5	c1cc(NCC2CCCNC2)nc(-c2n[nH]c3ncccc23)c1 (stereo not drawn) [Compound 12]
< 0.5	< 0.5	c1cc(NCC2CCNCC2)nc(-c2n[nH]c3ncccc23)c1 [Compound 14]
> 0.7	> 0.7	CC(C)CC(O)CNc1ccc(C(F)(F)F)c(-c2n[nH]c3ncccc23)n1 (stereo not drawn) [Compound 15]
< 0.5	< 0.5	CC(C)C[C@H](N)CNc1cccc(-c2n[nH]c3ncccc23)n1 [Compound 16]
> 0.7	> 0.7	CC(C)C[C@@H](CN)Nc1cccc(-c2n[nH]c3ncccc23)n1 [Compound 17]
> 0.7	> 0.7	c1cc(NCC2CCCN2)nc(-c2n[nH]c3ncccc23)c1 (stereo not drawn) [Compound 20]
< 2.8	< 2.8	c1cc(NCC2CCCCN2)nc(-c2n[nH]c3ncccc23)c1 (stereo not drawn) [Compound 23]
< 0.5	< 0.5	NCC1CCC(CNc2ccc(C(F)(F)F)c(-c3n[nH]c4ncccc34)n2)CC1 (stereo not drawn) [Compound 24]
> 0.7	> 0.7	FC(F)(F)c1ccc(NCC2CCCN2)nc1-c1n[nH]c2ncccc12 (stereo not drawn) [Compound 28]
> 0.7	> 0.7	FC(F)(F)c1ccc(NCC2CCNC2)nc1-c1n[nH]c2ncccc12 (stereo not drawn) [Compound 29]
> 0.7	> 0.7	FC(F)(F)c1ccc(NCC2CCCCN2)nc1-c1n[nH]c2ncccc12 (stereo not drawn) [Compound 32]
> 0.7	> 0.7	NC1CCC(Nc2ccc(C(F)(F)F)c(-c3n[nH]c4ncccc34)n2)CC1 (stereo not drawn) [Compound 35]
< 0.5	< 0.5	CC(C)C[C@H](N)COc1ccc(C(F)(F)F)c(-c2n[nH]c3ncccc23)n1 [Compound 38]
> 0.7	> 0.7	CC(C)C[C@@H](N)COc1ccc(C(F)(F)F)c(-c2n[nH]c3ncccc23)n1 [Compound 39]
< 2.8	< 2.8	FC(F)(F)c1ccc(NC2CCNCC2)nc1-c1n[nH]c2ncccc12 [Compound 40]
> 0.7	> 0.7	N#CCCOc1ccc(C(F)(F)F)c(-c2n[nH]c3ncccc23)n1 [Compound 45]
> 0.7	> 0.7	FC(F)(F)c1ccc(OCC2CCCNC2)nc1-c1n[nH]c2ncccc12 (stereo not drawn) [Compound 46]
< 0.5	< 0.5	OC1(CNc2ccc(C(F)(F)F)c(-c3n[nH]c4ncccc34)n2)CCCCC1 [Compound 47]
> 0.7	> 0.7	NCc1ccc(Nc2ccc(C(F)(F)F)c(-c3n[nH]c4ncccc34)n2)cc1 [Compound 48]
> 0.7	> 0.7	FC(F)(F)c1ccc(Nc2ccc3nc[nH]c3c2)nc1-c1n[nH]c2ncccc12 [Compound 49]

Second part, the molecule before the results:

Structure (SMILES)	Ki [1] [µM]	Ki [2] [µM]
NCCCNc1cccc(-c2n[nH]c3ncccc23)n1 [Compound 2]	< 0.5	< 0.5
NC1CCCCC1Nc1cccc(-c2n[nH]c3ncccc23)n1 (stereo not drawn) [Compound 3]	< 0.5	< 0.5
NCC1CCC(CNc2cccc(-c3n[nH]c4ncccc34)n2)CC1 (stereo not drawn) [Compound 4]	< 0.5	< 0.5
O[C@H](CNc1cccc(-c2n[nH]c3ncccc23)n1)c1ccccc1 [Compound 7]	> 0.7	> 0.7
OCCNc1cccc(-c2n[nH]c3ncccc23)n1 [Compound 8]	> 0.7	> 0.7
NCC(CNc1cccc(-c2n[nH]c3ncccc23)n1)c1ccccc1 (stereo not drawn) [Compound 9]	< 0.05	< 0.05
CC(C)(CN)CNc1cccc(-c2n[nH]c3ncccc23)n1 [Compound 10]	< 0.5	< 0.5
NC1CCC(CNc2cccc(-c3n[nH]c4ncccc34)n2)CC1 (stereo not drawn) [Compound 13, N-((4-aminocyclohexyl)methyl)-6-(1H-pyrazolo[3,4-b]pyridin-3-yl)pyridin-2-amine]	< 0.5	< 0.5
c1cc(NC2CCNCC2)nc(-c2n[nH]c3ncccc23)c1 [Compound 18]	< 0.05	< 0.05
O[C@H](CNc1ccc(C(F)(F)F)c(-c2n[nH]c3ncccc23)n1)c1ccccc1 [Compound 19]	< 0.5	< 0.5
CC(C)CC(O)CNc1cccc(-c2n[nH]c3ncccc23)n1 (stereo not drawn) [Compound 21]	> 0.7	> 0.7
c1cc(NCC2CCNC2)nc(-c2n[nH]c3ncccc23)c1 (stereo not drawn) [Compound 22]	< 0.5	< 0.5
NC1CCC(CNc2ccc(C(F)(F)F)c(-c3n[nH]c4ncccc34)n2)CC1 (stereo not drawn) [Compound 25, N-((4-aminocyclohexyl)methyl)-6-(1H-pyrazolo[3,4-b]pyridin-3-yl)-5-(trifluoromethyl)pyridin-2-amine]	< 0.5	< 0.5
FC(F)(F)c1ccc(NC2CCCNC2)nc1-c1n[nH]c2ncccc12 (stereo not drawn) [Compound 26]	> 0.7	> 0.7
FC(F)(F)c1ccc(NCC2CCNCC2)nc1-c1n[nH]c2ncccc12 [Compound 27]	> 0.7	> 0.7
NC1CCCC(Nc2ccc(C(F)(F)F)c(-c3n[nH]c4ncccc34)n2)C1 (stereo not drawn) [Compound 30]	< 0.5	< 0.5
FC(F)(F)c1ccc(NCC2CCCNC2)nc1-c1n[nH]c2ncccc12 (stereo not drawn) [Compound 31]	> 0.7	> 0.7
CC(C)(CN)CNc1ccc(C(F)(F)F)c(-c2n[nH]c3ncccc23)n1 [Compound 33]	< 0.5	< 0.5
NCC1CCCC(CNc2ccc(C(F)(F)F)c(-c3n[nH]c4ncccc34)n2)C1 (stereo not drawn) [Compound 34]	> 0.7	> 0.7
NC(CNc1ccc(C(F)(F)F)c(-c2n[nH]c3ncccc23)n1)c1ccccc1 (stereo not drawn) [Compound 36]	< 0.05	< 0.05
NC(COc1ccc(C(F)(F)F)c(-c2n[nH]c3ncccc23)n1)c1ccccc1 (stereo not drawn) [Compound 37]	< 0.5	< 0.5
NC(=O)c1ccccc1Oc1ccc(C(F)(F)F)c(-c2n[nH]c3ncccc23)n1 [Compound 41]	> 0.7	> 0.7
N#CCCNc1ccc(C(F)(F)F)c(-c2n[nH]c3ncccc23)n1 [Compound 42]	> 0.7	> 0.7
FC(F)(F)c1ccc(OCCC2CCCCN2)nc1-c1n[nH]c2ncccc12 (stereo not drawn) [Compound 43]	> 0.7	> 0.7
CN(CC#N)c1ccc(C(F)(F)F)c(-c2n[nH]c3ncccc23)n1 [Compound 44]	< 0.5	< 0.5
NC(=O)c1ccsc1Nc1ccc(C(F)(F)F)c(-c2n[nH]c3ncccc23)n1 [Compound 50]	> 0.7	> 0.7
FC(F)(F)c1ccc(OC[C@@H]2CCCN2)nc1-c1n[nH]c2ncccc12 [Compound 51]	> 0.7	> 0.7
